Experimental data: US20100179122A1 (priority 2005, published 2010)
Where two headings read alike, the source gives them in different places.

Columns and labels:
[1] = target: T1, mutant HIV reverse transcriptase (Y181C mutation) (Human immunodeficiency virus type 1 group M subtype B, UniProt P04585, Y768C); experiment: Analogous RT inhibition assay, Y181C mutant; format: biochemical; details: reverse transcriptase with Y181C mutation; tested up to 20 micromolar; read-out: IC50, Y181C mutant assay
T1 construct: mutations that occur in the reverse transcriptase segment of the pol gene; made in house
Experimental: (§1) 100 μL reaction mixtures were initiated with a combination of primer-template substrate (10 nM final concentration) and dNTPs (0.6 μM dNTPs, 0.75 μM [^3H]-dGTP). The heterodimeric nucleic acid substrate was generated by annealing the DNA primer pD500 (described in Shaw-Reid et al., J. Biol. Chem., 278: 2777-2780; obtained from Integrated DNA Technologies) to t500, a 500 nucleotide RNA template created by in vitro transcription (see Shaw-Reid et al., J. Biol. Chem., 278: 2777-2780). After 1 hour incubation at 37° C., reactions were quenched by 10 μl, streptavidin scintillation proximity assay beads (10 mg/mL, from Amersham Biosciences) in 0.5 M EDTA, pH 8. Microtiter plates were incubated an additional 10 minutes at 37° C. prior to quantification via Topcount (Packard).
(§2) Analogous assays were conducted substituting mutant HIV strains to determine the […] inhibition of compounds of the present invention against mutant HIV reverse transcriptase. In one strain the reverse transcriptase has the Y181C mutation and in the other strain the reverse transcriptase has the K103N mutation. The mutations were generated with the […] site-directed mutagenesis kit (Stratagene). […] The compounds set forth in the other Examples were not tested in the Y181C assay. […] The compounds set forth in the other Examples were not tested in the K103N assay.

[2] = target: T2, mutant HIV reverse transcriptase (K103N mutation) (Human immunodeficiency virus type 1 group M subtype B, UniProt P04585, K690N); experiment: Analogous RT inhibition assay, K103N mutant; format: biochemical
T2 construct: mutations that occur in the reverse transcriptase segment of the pol gene; made in house
Experimental: as §1, §2

[3] = test system: acute HIV infection of T-lymphoid cells; experiment: Assay for inhibition of HIV replication (spread assay); format: cell-based; details: read-out: IC95, spread assay
Experimental: An assay for the inhibition of acute HIV infection of T-lymphoid cells (alternatively referred to herein as the “spread assay”) was conducted in accordance with Vacca, J. P. et al., Proc. Natl. Acad. Sci. USA 1994, 91: 4096. […] The compounds set forth in the other Examples were not tested in the spread assay.

[4] = reverse transcriptase with K103N mutation, tested up to 20 micromolar, read-out: IC50, K103N mutant assay
[5] = Human immunodeficiency virus 1, inhibition of acute HIV infection of T-lymphoid cells

SMILES	IC50 [1]	IC50 [2, 4]	IC95 [3, 5]	IC50 [2]	IC95 ([3]; Human immunodeficiency virus 1, T-lymphoid)
O=C(Nc1ccccn1)Nc1[nH]c2ccc(Br)cc2c1S(=O)(=O)N1CCCC1 [Example 75, N-[5-bromo-3-(pyrrolidin-1-ylsulfonyl)-1H-indol-2-yl]-N′-pyridin-2-ylurea]	1000 to 20000 nM	< 1000 nM	< 1000 nM	–	–
O=C(Nc1[nH]c2ccc(Br)cc2c1S(=O)(=O)N1CCCC1)Nc1c(F)cccc1F [Example 77, N-[5-bromo-3-(pyrrolidin-1-ylsulfonyl)-1H-indol-2-yl]-N′-(2,6-difluorophenyl)urea]	1000 to 20000 nM	< 1000 nM	< 1000 nM	–	–
O=C(NCc1ccncc1)Nc1[nH]c2ccc(Br)cc2c1S(=O)(=O)N1CCCC1 [Example 86, N-[5-bromo-3-(pyrrolidin-1-ylsulfonyl)-1H-indol-2-yl]-N′-(pyridin-4-ylmethyl)urea]	> 20000 nM	< 1000 nM	< 1000 nM	–	–
NC(=O)Nc1[nH]c2ccc(Br)cc2c1S(=O)(=O)N1CCCC1 [Example 89, N-[5-bromo-3-(pyrrolidin-1-ylsulfonyl)-1H-indol-2-yl]urea]	> 20000 nM	–	< 1000 nM	< 1000 nM	–
O=C(NCCCc1ccccc1)Nc1[nH]c2ccc(Br)cc2c1S(=O)(=O)N1CCCC1 [Example 90, N-[5-bromo-3-(pyrrolidin-1-ylsulfonyl)-1H-indol-2-yl]-N′-(3-phenylpropyl)urea]	> 20000 nM	–	–	< 1000 nM	1000 to 10000 nM
